According to patent US20250101041A1, “POSITIVE ALLOSTERIC MODULATORS OF THE MUSCARINIC ACETYLCHOLINE RECEPTOR M4” (Vanderbilt University, priority 2022, published 2025):

Target: T1, human mAChR M4 (Homo sapiens, UniProt P08173)
T1 construct: expressed in transfected cells; host or cells: CHO-K1 (American Type Culture Collection), stably expressing hM4 and Gqi5
T1 sequence (P08173 1-479): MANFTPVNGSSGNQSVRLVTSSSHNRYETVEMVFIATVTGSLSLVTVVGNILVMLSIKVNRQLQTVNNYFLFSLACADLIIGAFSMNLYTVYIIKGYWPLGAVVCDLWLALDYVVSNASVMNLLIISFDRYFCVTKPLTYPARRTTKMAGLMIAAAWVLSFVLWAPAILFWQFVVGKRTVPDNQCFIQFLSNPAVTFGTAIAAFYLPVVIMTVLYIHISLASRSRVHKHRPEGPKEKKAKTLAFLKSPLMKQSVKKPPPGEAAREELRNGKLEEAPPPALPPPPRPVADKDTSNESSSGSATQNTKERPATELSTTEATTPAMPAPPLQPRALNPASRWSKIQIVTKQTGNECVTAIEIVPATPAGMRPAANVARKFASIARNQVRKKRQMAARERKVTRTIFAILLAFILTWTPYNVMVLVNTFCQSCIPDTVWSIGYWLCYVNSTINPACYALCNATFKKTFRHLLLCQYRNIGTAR
Test: mAChR M4 cell-based functional assay: calcium mobilization (Fluo-4, FDSS), potentiation of EC20 acetylcholine response in hM4-Gqi5 CHO-K1 cells
Conditions: human M4; for Emax at 30 µM: CHO-K1, % ACh maximum at 30 μM; for EC50: potentiation of EC20 acetylcholine response, calcium mobilization
Outline: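 CHO-K1 cells stably co-expressing human M4 and chimeric Gqi5, loaded with Fluo-4 AM (50 min, 37 °C). Compounds in 11-point 1:3 series added first; EC20 acetylcholine added at 144 s and again at 230 s. Calcium read on FDSS at 1 Hz; EC50 and Emax from four-parameter logistic fit of potentiated EC20 response.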

SMILES	Emax at 30 µM	EC50
COc1cncc(-c2cnc3c(c2)CN(c2nn4c(=O)cc(C(F)(F)F)nc4cc2C)CC3)c1 [Compound 1-74, 7-(3-(5-methoxypyridin-3-yl)-7,8-dihydro-1,6-naphthyridin-6(5H)-yl)-8-methyl-2-(trifluoromethyl)-4H-pyrimido[1,2-b]pyridazin-4-one]	102%	445 nM
Cc1cc(=O)n2nc(N3CCc4ncc(-c5ccccc5C)cc4C3)c(C)cc2n1 [Compound 1-237, 2,8-dimethyl-7-(3-(o-tolyl)-7,8-dihydro-1,6-naphthyridin-6(5H)-yl)-4H-pyrimido[1,2-b] pyridazin-4-one]	100%	365 nM
Cc1c(N2CCc3ncc(-c4cncc(Cl)c4)cc3C2)nn2c(=O)ccnc2c1C [Compound 1-144, 7-(3-(5-chloropyridin-3-yl)-7,8-dihydro-1,6-naphthyridin-6(5H)-yl)-8,9-dimethyl-4H-pyrimido[1,2-b]pyridazin-4-one]	82%	246 nM
Cc1cc2nccc(=O)n2nc1N1CCc2ncc(Oc3ccccc3F)cc2C1 [Compound 3-1, 7-(3-(2-fluorophenoxy)-7,8-dihydro-1,6-naphthyridin-6(5H)-yl)-8-methyl-4H-pyrimido[1,2-b]pyridazin-4-one]	75%	40 nM
Cc1cc(=O)n2nc(N3CCc4ncc(-c5cnn(CC(F)(F)F)c5)cc4C3)c(C)c(C)c2n1 [Compound 1-184, 2,8,9-trimethyl-7-(3-(1-(2,2,2-trifluoroethyl)-1H-pyrazol-4-yl)-7,8-dihydro-1,6-naphthyridin-6(5H)-yl)-4H-pyrimido[1,2-b]pyridazin-4-one]	80%	1260 nM
Cc1c(N2CCc3ncc(N4CCC(C)(C)C4=O)cc3C2)nn2c(=O)ccnc2c1C [Compound 2-148, 7-(3-(3,3-dimethyl-2-oxopyrrolidin-1-yl)-7,8-dihydro-1,6-naphthyridin-6(5H)-yl)-8,9-dimethyl-4H-pyrimido[1,2-b]pyridazin-4-one]	86%	1030 nM
Cc1c(N2CCc3ncc(-c4ccc(N5CCCCC5)nc4)cc3C2)nn2c(=O)ccnc2c1C [Compound 1-97, 8,9-dimethyl-7-(3-(6-(piperidin-1-yl)pyridin-3-yl)-7,8-dihydro-1,6-naphthyridin-6(5H)-yl)-4H-pyrimido[1,2-b]pyridazin-4-one]	79%	397 nM
Cc1cncc(Nc2cnc3c(c2)CN(c2nn4c(=O)ccnc4cc2C)CC3)c1 [Compound 2-133, 8-methyl-7-(3-((5-methylpyridin-3-yl)amino)-7,8-dihydro-1,6-naphthyridin-6(5H)-yl)-4H-pyrimido[1,2-b]pyridazin-4-one]	96%	184 nM
Cc1cc(=O)n2nc(N3CCc4ncc(N5CCCn6nccc65)cc4C3)c(C)cc2n1 [Compound 2-10, 7-(3-(6,7-dihydropyrazolo[1,5-a]pyrimidin-4(5H)-yl)-7,8-dihydro-1,6-naphthyridin-6(5H)-yl)-2,8-dimethyl-4H-pyrimido[1,2-b]pyridazin-4-one]	94%	70 nM
Cc1c(N2CCc3ncc(N4CCCn5nccc54)cc3C2)nn2c(=O)cc(C(F)F)nc2c1C [Compound 2-31, 2-(difluoromethyl)-7-(3-(6,7-dihydropyrazolo[1,5-a]pyrimidin-4(5H)-yl)-7,8-dihydro-1,6-naphthyridin-6(5H)-yl)-8,9-dimethyl-4H-pyrimido[1,2-b]pyridazin-4-one]	91%	14 nM
Cc1cc(N(C)C)ncc1-c1cnc2c(c1)CN(c1nn3c(=O)ccnc3cc1C)CC2 [Compound 1-407, 7-(3-(6-(dimethylamino)-4-methylpyridin-3-yl)-7,8-dihydro-1,6-naphthyridin-6(5H)-yl)-8-methyl-4H-pyrimido [1,2-b]pyridazin-4-one]	92%	132 nM
Cc1ccc(-c2cnc3c(c2)CN(c2nn4c(=O)cc(C(F)F)nc4c(C)c2C)CC3)cc1F [Compound 1-191, 2-(difluoromethyl)-7-(3-(3-fluoro-4-methylphenyl)-7,8-dihydro-1,6-naphthyridin-6(5H)-yl)-8,9-dimethyl-4H-pyrimido[1,2-b]pyridazin-4-one]	84%	2400 nM
COCc1cc(=O)n2nc(N3Cc4cc(C(F)(F)F)cnc4C(C)C3)c(C)c(C)c2n1 (single isomer, unassigned) [Compound 1-376]	106%	325 nM
Cc1c(N2CCc3ncc(-c4cnccc4Cl)cc3C2)nn2c(=O)ccnc2c1C [Compound 1-145, 7-(3-(4-chloropyridin-3-yl)-7,8-dihydro-1,6-naphthyridin-6(5H)-yl)-8,9-dimethyl-4H-pyrimido[1,2-b]pyridazin-4-one]	88%	122 nM
COCc1cc(=O)n2nc(N3CCc4ncc(-c5cnc(F)cc5C)cc4C3)c(C)cc2n1 [Compound 1-327, 7-(3-(6-fluoro-4-methylpyridin-3-yl)-7,8-dihydro-1,6-naphthyridin-6(5H)-yl)-2-(methoxymethyl)-8-methyl-4H-pyrimido[1,2-b]pyridazin-4-one]	71%	311 nM
Cc1cc2nccc(=O)n2nc1N1CCc2ncc(N3CC4(COC4)C3)cc2C1 [Compound 2-151, 7-(3-(2-oxa-6-azaspiro[3.3]heptan-6-yl)-7,8-dihydro-1,6-naphthyridin-6(5H)-yl)-8-methyl-4H-pyrimido[1,2-b]pyridazin-4-one]	56%	
Cc1ccc(-c2cnc3c(c2)CN(c2nn4c(=O)cc(C(F)F)nc4cc2C)CC3)cn1 [Compound 1-81, 2-(difluoromethyl)-8-methyl-7-(3-(6-methylpyridin-3-yl)-7,8-dihydro-1,6-naphthyridin-6(5H)-yl)-4H-pyrimido[1,2-b]pyridazin-4-one]	103%	88 nM
Cc1cc2nc(C(F)F)cc(=O)n2nc1N1CCc2ncc(N3CCO[C@H](C)C3)cc2C1 [Compound 2-25, (R)-2-(difluoromethyl)-8-methyl-7-(3-(2-methylmorpholino)-7,8-dihydro-1,6-naphthyridin-6(5H)-yl)-4H-pyrimido[1,2-b]pyridazin-4-one]	90%	209 nM
Cc1cc2nccn2cc1-c1cnc2c(c1)CN(c1nn3c(=O)cc(C(F)F)nc3c(C)c1C)CC2 [Compound 1-162, 2-(difluoromethyl)-8,9-dimethyl-7-(3-(7-methylimidazo[1,2-a]pyridin-6-yl)-7,8-dihydro-1,6-naphthyridin-6(5H)-yl)-4H-pyrimido[1,2-b]pyridazin-4-one]	71%	520 nM
Cc1cc2nccc(=O)n2nc1N1CCc2ncc(-c3ccc(C(F)(F)F)nc3)cc2C1 [Compound 1-66, 8-methyl-7-(3-(6-(trifluoromethyl)pyridin-3-yl)-7,8-dihydro-1,6-naphthyridin-6(5H)-yl)-4H-pyrimido[1,2-b]pyridazin-4-one]	77%	832 nM
COc1ccc(-c2cnc3c(c2)CN(c2nn4c(=O)cc(C)nc4c(C)c2C)CC3)cn1 [Compound 1-186, 7-(3-(6-methoxypyridin-3-yl)-7,8-dihydro-1,6-naphthyridin-6(5H)-yl)-2,8,9-trimethyl-4H-pyrimido[1,2-b]pyridazin-4-one]	84%	460 nM
Cc1cc2nccc(=O)n2nc1N1CCc2ncc(-c3cnn(C4CC4)c3)cc2C1 [Compound 1-8, 7-(3-(1-cyclopropyl-1H-pyrazol-4-yl)-7,8-dihydro-1,6-naphthyridin-6(5H)-yl)-8-methyl-4H-pyrimido[1,2-b]pyridazin-4-one]	81%	308 nM
Cc1cc(=O)n2nc(N3CCc4ncc(-c5ccncc5)cc4C3)c(C)cc2n1 [Compound 1-240, 2,8-dimethyl-7-(3-(pyridin-4-yl)-7,8-dihydro-1,6-naphthyridin-6(5H)-yl)-4H-pyrimido[1,2-b]pyridazin-4-one]	86%	284 nM
Cc1ccc(-c2cnc3c(c2)CN(c2nn4c(=O)ccnc4cc2C)CC3)cn1 [Compound 1-3, 8-methyl-7-(3-(6-methylpyridin-3-yl)-7,8-dihydro-1,6-naphthyridin-6(5H)-yl)-4H-pyrimido[1,2-b]pyridazin-4-one]	76%	99 nM
Cc1cc2nccc(=O)n2nc1N1CCc2ncc(NC(=O)C3CC(F)(F)C3)cc2C1 [Compound 2-120, 3,3-difluoro-N-(6-(8-methyl-4-oxo-4H-pyrimido[1,2-b]pyridazin-7-yl)-5,6,7,8-tetrahydro-1,6-naphthyridin-3-yl)cyclobutane-1-carboxamide]	71%	
Cc1cc(=O)n2nc(N3CCc4ncc(-c5ccncc5)cc4C3)c(C)c(C)c2n1 [Compound 1-244, 2,8,9-trimethyl-7-(3-(pyridin-4-yl)-7,8-dihydro-1,6-naphthyridin-6(5H)-yl)-4H-pyrimido[1,2-b]pyridazin-4-one]	82%	112 nM
